Assay results: patent US4183910A, “Method for testing to predict and/or diagnose allergy to penicillins, and compounds and compositions for use in such tests” (priority 1978, dated 1980)

Tests used:
Assay type in all cases: in vivo, human
[1] = test system: patients known to give positive skin test to penicillin derivatives; experiment: Intradermal skin test with BPO-amines and other penicillin allergy skin test materials (Table II); conditions: for Intensity of reactions in patients: patient alpha / Skin test reaction of patient four, in words: patient four; for Skin test reaction of patient four, in words: text summary of Table II; for Intensity of reactions in patients: patient iota: patient nine; for Intensity of reactions in patients: patient epsilon: patient seven; for Intensity of reactions in patients: delta: patient six; for Intensity of reactions in patients: theta: patient two; for Intensity of reactions in patients: patient zeta: patient one; for Intensity of reactions in patients: beta: patient three; for Intensity of reactions in patients: patient gamma: patient eight
Description: Benzylpenicillin (PG) was 1.0×10^-2 M in 0.11M saline.
Sodium benzylpenicilloate plus sodium benzylpenilloate (P/P) was 1.0×10^-2 M of each dissolved in phosphate buffered saline at pH 7.5.
Benzylpenicilloyl-amine (BPO-amine) was 1.0×10^-2 M concentration phosphate buffered saline at pH 7.5.
Benzylpenicilloyl-n-propyl amine and benzylpenicilloyl-n-ethyl amine (as α-diastereoisomers) were each dissolved to 1.0×10^-2 M concentration in phosphate buffered saline at pH 7.5.
They were healthy men and women ranging in age from 23 to 56 years. Ten people negative to the skin test materials served as controls.
Using 1.0 ml tuberculin syringes with #26 needles and intradermal bevels, 0.01 ml volumes of the test materials were injected intradermally into the anterior-lateral aspects of the arms. Skin tests were read in 15 minutes. A negative reaction is the poorly outlined bleb of fluid --1-3 mm in diameter without surrounding erythema. Positive tests were sharply outlined wheals of 4-20 mm diameter with surrounding erythema. The positive tests were graded as 1+,2+,3+ and 4+ on the basis of wheal diameter. 1+=4-6 mm; 2+=7-9 mm; 3+=10-12 mm; and 4+=more than 13 mm with pseudopods. […] Skin tests were done in duplicate.

[2] = test system: patients allergic to penicillin; experiment: Prick skin test with B8 L8 solution; conditions: Patient No. 1; B8 L8 1×10^-6 molar in tris-buffered saline pH 8.2
Description: (§1) The B8 L8 stock solution was diluted to 1×10^-6 molar in tris-buffered saline with a pH of 8.2, also containing ethylenediaminetetraceticacid (2×10^-4 molar) for stability. The composition was then used in skin testing. The tests were conducted by both the prick test and intradermal test methods, and the results were as follows:
Patient No. 1--prick test--B8 L8 =2+.

[3] = test system: patients allergic to penicillin; experiment: Intradermal skin test with B8 L8 solution; conditions: Patient No. 2; B8 L8 1×10^-6 molar in tris-buffered saline pH 8.2
Description: as §1
Patient No. 2--intradermal test--the B8 L8 gave a 10 mm wheal and rated from 2+ to 3+ in intensity.

[4] = intradermal 0.01 ml, read in 15 minutes, BPL 1 × 10^-6 M, other materials 1 × 10^-2 M

Molecule	Intensity of reactions in patients: patient alpha [1, 4]	Skin test reaction of patient four, in words [1]	Intensity of reactions in patients: patient iota [1, 4]	Intensity of reactions in patients: patient epsilon [1, 4]	Intensity of reactions in patients: delta [1, 4]	Intensity of reactions in patients: theta [1, 4]	Intensity of reactions in patients: patient zeta [1, 4]	Intensity of reactions in patients: beta [1, 4]	Intensity of reactions in patients: patient gamma [1, 4]	Intensity of reactions in patients: patient eta ([1]; patient five, intradermal 0.01 ml, read in 15 minutes, BPL 1 × 10^-6 M, other materials 1 × 10^-2 M)	Prick test reaction intensity [2]	Size of the wheal (diameter), prick test [2]	Wheal, intradermal test [3] [mm]
CCNC(=O)C(NC(=O)Cc1ccccc1)C1NC(C(=O)O)C(C)(C)S1 (centres unmarked) [BPO-ethyl amine, benzylpenicilloyl-n-ethyl amine]	2+ (2+=7-9 mm)	positive reaction	0 (A negative reaction is the poorly outlined bleb of fluid --1-3 mm in diameter without surrounding erythema)	trace	0 (A negative reaction is the poorly outlined bleb of fluid --1-3 mm in diameter without surrounding erythema)	3+ (3+=10-12 mm)							
CCCNC(=O)[C@@H](NC(=O)Cc1ccccc1)[C@@H]1N[C@@H](C(=O)O)C(C)(C)S1 [BPO-propyl amine, Benzylpenicilloyl-n-propyl amine]		positive reaction	1+ (1+=4-6 mm)	trace	0 (A negative reaction is the poorly outlined bleb of fluid --1-3 mm in diameter without surrounding erythema)		1 - 2°	2+ (2+=7-9 mm)					
CC1(C)S[C@@H]2[C@H](NC(=O)Cc3ccccc3)C(=O)N2[C@H]1C(=O)O [PG, Benzylpenicillin]	0 (A negative reaction is the poorly outlined bleb of fluid --1-3 mm in diameter without surrounding erythema)		trace	trace	0 (A negative reaction is the poorly outlined bleb of fluid --1-3 mm in diameter without surrounding erythema)	2+ (2+=7-9 mm)	2+ (2+=7-9 mm)	1+ (1+=4-6 mm)	0 (A negative reaction is the poorly outlined bleb of fluid --1-3 mm in diameter without surrounding erythema)	0 (A negative reaction is the poorly outlined bleb of fluid --1-3 mm in diameter without surrounding erythema)			
Benzylpenicilloyl8 -Poly-L-Lysine8 [B8 L8]											2+ (2+=7-9 mm)	4-5 mm	10
Benzylpenicilloyl-amine [BPO-amine]	1+ (1+=4-6 mm)		2+ (2+=7-9 mm)	trace	0 (A negative reaction is the poorly outlined bleb of fluid --1-3 mm in diameter without surrounding erythema)				1+ (1+=4-6 mm)				
